Measurements: publication PMC4710668, “Bioactivation of food genotoxicants 5-hydroxymethylfurfural and furfuryl alcohol by sulfotransferases from human, mouse and rat: a comparative study” (Archives of Toxicology, 2014)

Experiments:
Assay in all cases: HMF sulfoconjugation assay
Format in all cases: biochemical
[1] = target: T1, rSult1c1 (Rattus norvegicus, UniProt P50237)
T1 construct: made in house; host or cells: Salmonella typhimurium TA1538 (cytosolic fraction, enzyme not purified)
Procedure, shortened: (§1)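 SULT cytosol from TA1538, 25–200 µg protein; KPi 50 mM pH 7.4, MgCl2 5 mM, PAPS 50 µM; HMF varied; 37 °C, 30 min; stop with ice-cold 2-propanol; SMF by UPLC-MS/MS, LOD 0.5 pmol SMF/mg/min.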

[2] = target: T2, hSULT1C2 (Homo sapiens, UniProt O75897)
T2 construct: made in house; host or cells: Salmonella typhimurium TA1538 (cytosolic fraction, not purified)
T2 sequence (O75897 whole entry): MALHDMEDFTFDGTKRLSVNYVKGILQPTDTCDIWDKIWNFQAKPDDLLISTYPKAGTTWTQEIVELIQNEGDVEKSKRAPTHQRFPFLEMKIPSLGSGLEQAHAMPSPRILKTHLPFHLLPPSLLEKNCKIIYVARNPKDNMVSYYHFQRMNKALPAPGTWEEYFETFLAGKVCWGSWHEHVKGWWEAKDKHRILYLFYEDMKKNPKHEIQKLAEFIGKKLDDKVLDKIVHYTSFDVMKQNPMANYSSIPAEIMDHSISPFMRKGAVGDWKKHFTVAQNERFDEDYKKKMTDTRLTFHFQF
Procedure, shortened: as §1

[3] = target: T3, hSULT2A1 (Homo sapiens, UniProt Q06520)
T3 construct: made in house; host or cells: Salmonella typhimurium TA1538 (cytosolic fraction, not purified)
T3 sequence (Q06520 1-285): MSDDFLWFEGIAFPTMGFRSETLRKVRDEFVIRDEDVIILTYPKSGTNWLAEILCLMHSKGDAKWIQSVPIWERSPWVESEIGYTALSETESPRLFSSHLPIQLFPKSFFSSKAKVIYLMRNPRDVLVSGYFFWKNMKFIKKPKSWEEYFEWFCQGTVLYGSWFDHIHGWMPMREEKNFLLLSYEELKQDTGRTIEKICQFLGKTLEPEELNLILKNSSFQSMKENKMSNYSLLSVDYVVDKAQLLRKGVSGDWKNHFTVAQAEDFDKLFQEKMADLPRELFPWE
Procedure, shortened: as §1

[4] = target: T4, rSult1b1 (Rattus norvegicus, UniProt P52847)
T4 construct: made in house; host or cells: Salmonella typhimurium TA1538 (cytosolic fraction, enzyme not purified)
T4 sequence (P52847 whole entry): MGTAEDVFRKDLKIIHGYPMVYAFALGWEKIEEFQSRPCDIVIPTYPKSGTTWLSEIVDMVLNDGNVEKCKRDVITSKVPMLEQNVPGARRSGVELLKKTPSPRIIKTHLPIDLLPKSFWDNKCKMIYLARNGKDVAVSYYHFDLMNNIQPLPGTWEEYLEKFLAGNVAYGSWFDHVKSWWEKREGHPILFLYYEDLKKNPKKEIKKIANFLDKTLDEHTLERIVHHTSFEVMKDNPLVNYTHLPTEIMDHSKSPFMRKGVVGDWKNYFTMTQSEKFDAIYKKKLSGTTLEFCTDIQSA
Procedure, shortened: as §1

[5] = target: T5, hSULT1A2 (Homo sapiens, UniProt P50226)
T5 construct: made in house; host or cells: Salmonella typhimurium TA1538 (cytosolic fraction, not purified)
T5 sequence (P50226 whole entry): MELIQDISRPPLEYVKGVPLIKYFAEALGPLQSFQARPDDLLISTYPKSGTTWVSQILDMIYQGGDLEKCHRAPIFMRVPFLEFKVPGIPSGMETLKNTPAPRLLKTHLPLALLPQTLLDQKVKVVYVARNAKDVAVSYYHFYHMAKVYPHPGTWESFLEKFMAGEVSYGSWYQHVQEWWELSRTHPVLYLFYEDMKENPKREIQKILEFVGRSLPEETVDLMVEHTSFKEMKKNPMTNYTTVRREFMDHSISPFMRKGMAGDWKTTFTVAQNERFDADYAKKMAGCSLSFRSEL
Procedure, shortened: as §1

[6] = HMF sulfoconjugation, Michaelis-Menten fit

T1 sequence (P50237 whole entry): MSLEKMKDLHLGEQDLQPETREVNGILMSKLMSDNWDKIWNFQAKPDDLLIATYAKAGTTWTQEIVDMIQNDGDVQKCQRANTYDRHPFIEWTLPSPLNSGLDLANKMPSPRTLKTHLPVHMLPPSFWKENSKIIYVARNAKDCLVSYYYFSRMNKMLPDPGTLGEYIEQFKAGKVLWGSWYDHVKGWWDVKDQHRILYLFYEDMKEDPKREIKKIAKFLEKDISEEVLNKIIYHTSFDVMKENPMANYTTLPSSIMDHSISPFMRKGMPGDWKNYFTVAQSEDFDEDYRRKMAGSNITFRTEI

Compound: O=Cc1ccc(CO)o1 [HMF, 5-Hydroxymethylfurfural]
- Rate of sulfoconjugation ([1]; 0.1 mM HMF): 2.1 ± 1.3 pmol/mg/min
- Rate of sulfoconjugation ([1]; 1 mM HMF): 29.1 ± 9.0 pmol/mg/min
- Rate of sulfoconjugation ([1]; 10 mM HMF): 120 ± 39 pmol/mg/min
- Rate of sulfoconjugation ([1]; 100 mM HMF): 47.5 ± 27.3 pmol/mg/min
- K M ([1]; HMF sulfoconjugation, extended Michaelis-Menten equation with substrate inhibition): 18.4 ± 4.7 mM
- Rate of sulfoconjugation ([2]; 0.1 mM HMF): 1.1 ± 0.3 pmol/mg/min
- Rate of sulfoconjugation ([2]; 1 mM HMF): 14.0 ± 1.8 pmol/mg/min
- Rate of sulfoconjugation ([2]; 10 mM HMF): 115 ± 14 pmol/mg/min
- Rate of sulfoconjugation ([2]; 100 mM HMF): 285 ± 71 pmol/mg/min
- K M [2, 6]: 18.8 ± 5.4 mM
- Rate of sulfoconjugation ([3]; 0.1 mM HMF): <0.5 pmol/mg/min
- Rate of sulfoconjugation ([3]; 1 mM HMF): 2.4 ± 0.6 pmol/mg/min
- Rate of sulfoconjugation ([3]; 10 mM HMF): 31.1 ± 5.4 pmol/mg/min
- Rate of sulfoconjugation ([3]; 100 mM HMF): 201 ± 39 pmol/mg/min
- Rate of sulfoconjugation ([4]; 0.1 mM HMF): <0.5 pmol/mg/min
- Rate of sulfoconjugation ([4]; 1 mM HMF): 3.4 ± 0.2 pmol/mg/min
- Rate of sulfoconjugation ([4]; 10 mM HMF): 25.2 ± 0.4 pmol/mg/min
- Rate of sulfoconjugation ([4]; 100 mM HMF): 30.8 ± 1.2 pmol/mg/min
- K M [4, 6]: 15.7 ± 0.9 mM
- Rate of sulfoconjugation ([5]; 0.1 mM HMF): <0.5 pmol/mg/min
- Rate of sulfoconjugation ([5]; 1 mM HMF): 15.2 ± 4.5 pmol/mg/min
- Rate of sulfoconjugation ([5]; 10 mM HMF): 130 ± 53 pmol/mg/min
- Rate of sulfoconjugation ([5]; 100 mM HMF): 628 ± 233 pmol/mg/min
- K M [5, 6]: 56.5 ± 5.4 mM
